In patent publication US11180482B2, “Anilinopyrimidines as haematopoietic progenitor kinase 1 (HPK1) inhibitors” (Ariad Pharmaceuticals, Inc., priority 2016, dated 2021):

biological target: Wild Type HPK1 (MAP4K1) Kinase (Homo sapiens (Human), UniProt Q92918); assay: HPK1 Assay (Caliper EZ reader, fluorescein tagged peptide substrate); type: biochemical; conditions: ATP 500 micromolar, kinase 6 nM, pH 7.4
Experimental: The enzymatic activity of Wild Type HPK1 (MAP4K1) Kinase was measured in the presence or absence of an inhibitor compound of the present disclosure by preparation of a reaction mixture containing a fluorescein tagged peptide (2 micromolar final concentration), ATP (Adenosine Triphosphate, 500 micromolar final concentration) and Wild Type kinase (6 nM final concentration) in a buffer system comprising 50 mM HEPES (Buffer), 3 mM MgCl2, 5% w/v Trehalose, 0.01% Brij 35 (Detergent), 0.1% Pluronic F127 (Surfactant), 0.1 mM EDTA (Ethylenediaminetetraacetic acid), 0.1 mM EGTA (ethylene glycol-bis(β-aminoethyl ether)-N,N,N′,N′-tetraacetic acid) and 1 mM DTT (Dithiothreitol) and at a pH of 7.4. The reactions were quenched by the addition of EDTA to a final concentration of 25 mM. A Caliper EZ reader was used to measure the extent of substrate to product conversion.
The peptide substrate used in the HPK1 assay was designed based on the amino acid sequence surrounding serine residue 376 of SLP76-Lymphocyte cytosolic protein 2 (a known intracellular substrate of HPK1). This sequence SSFPQSAsLPPYFSQ was modified as follows for use in Caliper assays of HPK1: the serine residues on either side of serine 376 were replaced with alanine, three lysine residues were added at the […] and a fluorescein tag (FAM) was attached to the […] to produce the sequence, FAM-FPQAAsLPPYFAKKK.

Chain of Wild Type HPK1 (MAP4K1) Kinase (Q92918 whole entry, species assumed): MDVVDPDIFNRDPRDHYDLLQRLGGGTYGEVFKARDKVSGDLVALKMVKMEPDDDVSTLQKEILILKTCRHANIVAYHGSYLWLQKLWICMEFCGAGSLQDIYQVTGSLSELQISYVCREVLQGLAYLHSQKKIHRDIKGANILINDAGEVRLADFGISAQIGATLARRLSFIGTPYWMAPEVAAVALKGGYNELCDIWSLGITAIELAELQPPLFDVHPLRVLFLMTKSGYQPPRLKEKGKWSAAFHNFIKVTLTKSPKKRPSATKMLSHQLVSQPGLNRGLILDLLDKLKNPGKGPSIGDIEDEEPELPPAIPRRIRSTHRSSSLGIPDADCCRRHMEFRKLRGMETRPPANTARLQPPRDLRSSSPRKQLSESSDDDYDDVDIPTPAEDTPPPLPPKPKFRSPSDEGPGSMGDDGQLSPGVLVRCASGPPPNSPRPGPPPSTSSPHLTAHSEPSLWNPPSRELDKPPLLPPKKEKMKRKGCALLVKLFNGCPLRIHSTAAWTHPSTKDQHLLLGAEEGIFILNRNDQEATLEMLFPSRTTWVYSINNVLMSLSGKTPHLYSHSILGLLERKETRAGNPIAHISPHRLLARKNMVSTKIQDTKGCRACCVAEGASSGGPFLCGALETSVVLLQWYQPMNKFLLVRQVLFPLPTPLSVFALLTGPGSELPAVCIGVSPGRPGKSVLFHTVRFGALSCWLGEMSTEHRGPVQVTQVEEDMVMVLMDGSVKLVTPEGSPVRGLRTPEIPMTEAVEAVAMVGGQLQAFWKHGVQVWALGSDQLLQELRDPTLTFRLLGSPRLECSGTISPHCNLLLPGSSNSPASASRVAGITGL

| Structure (SMILES) | IC50 [µM] |
| --- | --- |
| COc1cc2c(cc1Nc1ncc(Cl)c(Nc3ccccc3P(C)(C)=O)n1)CN(C)C2 [Example I-1, (2-((5-Chloro-2-((6-methoxy-2-methylisoindolin-5-yl)amino)pyrimidin-4-yl)amino)phenyl)dimethylphosphine oxide] | 0.01 to 0.1 |
| COc1cc2c(cc1Nc1ncc(Cl)c(Nc3ccccc3P(C)(C)=O)n1)CN(C)CC2 [Example I-2, (2-((5-chloro-2-((6-methoxy-2-methyl-1,2,3,4-tetrahydroisoquinolin-7-yl)amino)pyrimidin-4-yl)amino)phenyl)dimethylphosphine oxide] | < 0.005 |
| COc1cc2c(cc1Nc1ncc(Cl)c(Nc3ccccc3P(C)(C)=O)n1)CCN(C)CC2 [Example I-3, (2-((5-chloro-2-((8-methoxy-3-methyl-2,3,4,5-tetrahydro-1H-benzo[d]azepin-7-yl)amino)pyrimidin-4-yl)amino)phenyl)dimethylphosphine oxide] | 0.01 to 0.1 |
| COc1cc2c(cc1Nc1ncc(Cl)c(Nc3ccccc3P(C)(C)=O)n1)CCCN(C)C2 [Example I-4, (2-((5-chloro-2-((8-methoxy-2-methyl-2,3,4,5-tetrahydro-1H-benzo[c]azepin-7-yl)amino)pyrimidin-4-yl)amino)phenyl)dimethylphosphine oxide] | 0.01 to 0.1 |
| CN1CCc2cc(F)c(Nc3ncc(Cl)c(Nc4ccccc4P(C)(C)=O)n3)cc2C1 [Example I-5, (2-((5-chloro-2-((6-fluoro-2-methyl-1,2,3,4-tetrahydroisoquinolin-7-yl)amino)pyrimidin-4-yl)amino)phenyl)dimethylphosphine oxide] | < 0.005 |
| CN1CCc2cc(Cl)c(Nc3ncc(Cl)c(Nc4ccccc4P(C)(C)=O)n3)cc2C1 [Example I-6, 5-chloro-N^2-(6-chloro-2-methyl-3,4-dihydro-1H-isoquinolin-7-yl)-N^4-(2-dimethylphosphorylphenyl)pyrimidine-2,4-diamine] | < 0.005 |
| CCc1cc2c(cc1Nc1ncc(Cl)c(Nc3ccccc3P(C)(C)=O)n1)CN(C)CC2 [Example I-7, 5-chloro-N^4-(2-dimethylphosphorylphenyl)-N^2-(6-ethyl-2-methyl-3,4-dihydro-1H-isoquinolin-7-yl)pyrimidine-2,4-diamine] | 0.005 to 0.01 |
| C=Cc1cc2c(cc1Nc1ncc(Cl)c(Nc3ccccc3P(C)(C)=O)n1)CN(C)CC2 [Example I-8, 5-chloro-N^4-(2-dimethylphosphorylphenyl)-N^2-(2-methyl-6-vinyl-3,4-dihydro-1H-isoquinolin-7-yl)pyrimidine-2,4-diamine] | 0.005 to 0.01 |
| COc1c(Nc2ncc(Cl)c(Nc3ccccc3P(C)(C)=O)n2)cc2c(c1N)CC1CCCCN1C2 (stereo not shown) [Example I-9, N^8-[5-chloro-4-(2-dimethylphosphorylanilino)pyrimidin-2-yl]-9-methoxy-2,3,4,6,11,11a-hexahydro-1H-benzo[b]quinolizine-8,10-diamine] | 0.01 to 0.1 |
| COc1cc2c(cc1Nc1ncc(Cl)c(Nc3ccccc3P(C)(C)=O)n1)CN1CCCCC1C2 (stereo not shown) [Example I-10, 5-chloro-N^4-(2-dimethylphosphorylphenyl)N^2-(9-methoxy-2,3,4,6,11,11a-hexahydro-1H-benzo[b]quinolizin-8-yl)pyrimidine-2,4-diamine] | < 0.005 |
| COc1cc2c(cc1Nc1ncc(Cl)c(Nc3ccccc3P(C)(C)=O)n1)CN(C(C)C)CC2 [Example I-11, (2-((5-chloro-2-((2-isopropyl-6-methoxy-1,2,3,4-tetrahydroisoquinolin-7-yl)amino)pyrimidin-4-yl)amino)phenyl)dimethylphosphine oxide] | < 0.005 |
| CCN1CCc2cc(OC)c(Nc3ncc(Cl)c(Nc4ccccc4P(C)(C)=O)n3)cc2C1 [Example I-12, (2-((5-chloro-2-((2-ethyl-6-methoxy-1,2,3,4-tetrahydroisoquinolin-7-yl)amino)pyrimidin-4-yl)amino)phenyl)dimethylphoshine oxide] | < 0.005 |
| COc1cc2c(cc1Nc1ncc(Cl)c(Nc3ccccc3P(C)(C)=O)n1)[C@H](N(C)C)CCC2 [Example I-13, (R)-(2-((5-chloro-2-((8-(dimethylamino)-3-methoxy-5,6,7,8-tetrahydronaphthalen-2-yl)amino)pyrimidin-4-yl)amino)phenyl)dimethylphosphine oxide] | 0.01 to 0.1 |
| COc1cc2c(cc1Nc1ncc(Cl)c(Nc3ccccc3P(C)(C)=O)n1)[C@H](N(C)C)CC2 [Example I-14, (R)-(2-((5-chloro-2-((3-(dimethylamino)-6-methoxy-2,3-dihydro-1H-inden-5-yl)amino)pyrimidin-4-yl)amino)phenyl)dimethylphosphine oxide] | 0.005 to 0.01 |
| COc1cc2c(cc1Nc1ncc(Cl)c(Nc3ccccc3P(C)(C)=O)n1)[C@@H](N(C)C)CCC2 [Example I-15, (S)-(2-((5-chloro-2-((8-(dimethylamino)-3-methoxy-5,6,7,8-tetrahydronaphthalen-2-yl)amino)pyrimidin-4-yl)amino)phenyl)dimethylphosphine oxide] | 0.1 to 10 |
| COc1cc2c(cc1Nc1ncc(Cl)c(Nc3ccccc3P(C)(C)=O)n1)[C@@H](N(C)C)CC2 [Example I-16, (S)-(2-((5-chloro-2-((3-(dimethylamino)-6-methoxy-2,3-dihydro-1H-inden-5-yl)amino)pyrimidin-4-yl)amino)phenyl)dimethylphosphine oxide] | 0.1 to 10 |
| COc1cc2c(cc1Nc1ncc(Cl)c(Nc3ccccc3P(C)(C)=O)n1)CC(N(C)C)C2 (stereo not shown) [Example I-17, (2-((5-chloro-2-((2-(dimethylamino)-6-methoxy-2,3-dihydro-1H-inden-5-yl)amino)pyrimidin-4-yl)amino)phenyl)dimethylphosphine oxide] | 0.01 to 0.1 |
| COc1cc2c(cc1Nc1ncc(Cl)c(Nc3ccccc3P(C)(C)=O)n1)CCN(C)C2 [Example I-18, (2-((5-chloro-2-((7-methoxy-2-methyl-1,2,3,4-tetrahydroisoquinolin-6-yl)amino)pyrimidin-4-yl)amino)phenyl)dimethylphosphine oxide] | < 0.005 |
| CCP(=O)(CC)c1ccccc1Nc1nc(Nc2cc3c(cc2OC)CCN(C)C3)ncc1Cl [Example I-19, (2-((5-chloro-2-((6-methoxy-2-methyl-1,2,3,4-tetrahydroisoquinolin-7-yl)amino)pyrimidin-4-yl)amino)phenyl)diethylphosphine oxide] | < 0.005 |
| CCP(=O)(CC)c1ccccc1Nc1nc(Nc2cc3c(cc2Cl)CCN(C)C3)ncc1Cl [Example I-20, (2-((5-chloro-2-((6-chloro-2-methyl-1,2,3,4-tetrahydroisoquinolin-7-yl)amino)pyrimidin-4-yl)amino)phenyl)diethylphosphine oxide] | < 0.005 |
| COc1cc2c(cc1Nc1ncc(Br)c(Nc3ccccc3P(C)(C)=O)n1)CN(C)CC2 [Example I-22, (2-((5-bromo-2-((6-methoxy-2-methyl-1,2,3,4-tetrahydroisoquinolin-7-yl)amino)pyrimidin-4-yl)amino)phenyl)dimethylphosphine oxide] | < 0.005 |
| COc1cc2c(cc1Nc1ncc(OC)c(Nc3ccccc3P(C)(C)=O)n1)CN(C)CC2 [Example I-23, (2-((5-methoxy-2-((6-methoxy-2-methyl-1,2,3,4-tetrahydroisoquinolin-7-yl)amino)pyrimidin-4-yl)amino)phenyl)dimethylphosphine oxide] | 0.005 to 0.01 |
| CN1CCc2c(Br)cc(Nc3ncc(Cl)c(Nc4ccccc4P(C)(C)=O)n3)cc2C1 [Example I-24, (2-((2-((5-bromo-2-methyl-1,2,3,4-tetrahydroisoquinolin-7-yl)amino)-5-chloropyrimidin-4-yl)amino)phenyl)dimethylphosphine oxide] | < 0.005 |
| COc1cc2c(cc1Nc1nccc(Nc3ccccc3P(C)(C)=O)n1)CN(C)CC2 [Example I-25, (2-((2-((6-methoxy-2-methyl-1,2,3,4-tetrahydroisoquinolin-7-yl)amino)pyrimidin-4-yl)amino)phenyl)dimethylphosphine oxide] | 0.1 to 10 |
| COc1cc2c(cc1Nc1ncc(F)c(Nc3ccccc3P(C)(C)=O)n1)CN(C)CC2 [Example I-26, (2-((5-fluoro-2-((6-methoxy-2-methyl-1,2,3,4-tetrahydroisoquinolin-7-yl)amino)pyrimidin-4-yl)amino)phenyl)dimethylphosphine oxide] | 0.01 to 0.1 |
| COc1cc2c(cc1Nc1ncc(C(F)(F)F)c(Nc3ccccc3P(C)(C)=O)n1)CN(C)CC2 [Example I-27, (2-((2-((6-methoxy-2-methyl-1,2,3,4-tetrahydroisoquinolin-7-yl)amino)-5-(trifluoromethyl)pyrimidin-4-yl)amino)phenyl)dimethylphosphine oxide] | 0.005 to 0.01 |
| COc1cc2c(cc1Nc1ncc(Cl)c(Nc3ccccc3P(C)(C)=O)n1)C(C)(C)N(C)CC2 [Example I-28, (2-((5-chloro-2-((6-methoxy-1,1,2-trimethyl-1,2,3,4-tetrahydroisoquinolin-7-yl)amino)pyrimidin-4-yl)amino)phenyl)dimethylphosphine oxide] | 0.01 to 0.1 |
| COc1cc2c(cc1Nc1ncc(Cl)c(Nc3ccccc3P(C)(C)=O)n1)C(C)N(C)CC2 (stereo not shown) [Example I-29, (2-((5-chloro-2-((6-methoxy-1,2-dimethyl-1,2,3,4-tetrahydroisoquinolin-7-yl)amino)pyrimidin-4-yl)amino)phenyl)dimethylphosphine oxide] | < 0.005 |
